Where “and” joins values, the source holds several entries; their conditions need not be identical. Equal values may be shown once. Inconclusive results and toxic doses are left out.
Tested on: BDF1 mice, intracerebral L1210 leukemia, survival T/C
Experiment: NCI In Vivo Anticancer Drug Screen. Data for tumor model L1210 Leukemia (intracerebral) in B6D2F1 (BDF1) mice
Details: higher = longer survival
Outline: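 Tumour was transplanted, animals received compound or vehicle, then survival in each group was measured and treated divided by control.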

With `Nc1nc(=O)n(C2OC(CO)C(O)C2O)cc1F` (centres undefined) the T/C (endpoint: median survival time, dose: 1.0 mg/kg/injection, schedule: Q01DX009 (ip), vehicle: saline) was 116 % of control, the T/C (endpoint: median survival time, dose: 2.0 mg/kg/injection, schedule: Q01DX009 (ip), vehicle: saline) was 124 % of control and the T/C (endpoint: median survival time, dose: 4.0 mg/kg/injection, schedule: Q01DX009 (ip), vehicle: saline) was 124 % of control. For the same compound, the T/C (endpoint: median survival time, dose: 8.0 mg/kg/injection, schedule: Q01DX009 (ip), vehicle: saline) was 153 % of control, the T/C (endpoint: median survival time, dose: 8.0 mg/kg/injection, schedule: Q01DX009 (ip), vehicle: water) was 173 % of control and the T/C (endpoint: median survival time, dose: 16.0 mg/kg/injection, schedule: Q01DX009 (ip), vehicle: saline) was 179 % of control. For the same compound, the T/C (endpoint: median survival time, dose: 16.0 mg/kg/injection, schedule: Q01DX009 (ip), vehicle: water) was 212 % of control, the T/C (endpoint: median survival time, dose: 32.0 mg/kg/injection, schedule: Q01DX009 (ip), vehicle: saline) was 201 % of control and the T/C (endpoint: median survival time, dose: 32.0 mg/kg/injection, schedule: Q01DX009 (ip), vehicle: water) was 234 % of control. The T/C (endpoint: median survival time, dose: 64.0 mg/kg/injection, schedule: Q01DX009 (ip), vehicle: saline) was 228 % of control, the T/C (endpoint: median survival time, dose: 64.0 mg/kg/injection, schedule: Q01DX009 (ip), vehicle: water) was 247 % of control and the T/C (endpoint: median survival time, dose: 128.0 mg/kg/injection, schedule: Q01DX009 (ip), vehicle: water) was 89 % of control. For the same compound, the T/C (endpoint: median survival time, dose: 512.0 mg/kg/injection, schedule: Q01DX009 (ip), vehicle: saline) was 98 % of control.

`O=c1[nH]c(=O)n([C@H]2CCCO2)cc1F` was tested, and the T/C (endpoint: median survival time, dose: 23.0 mg/kg/injection, schedule: Q01DX009 (ip), vehicle: water) was 95 % of control, the T/C (endpoint: median survival time, dose: 39.0 mg/kg/injection, schedule: Q01DX009 (ip), vehicle: water) was 107 % of control and the T/C (endpoint: median survival time, dose: 65.0 mg/kg/injection, schedule: Q01DX009 (ip), vehicle: water) was 101 % of control. The T/C (endpoint: median survival time, dose: 65.0 mg/kg/injection, schedule: Q04DX003 (ip), vehicle: water) was 97 % of control, the T/C (endpoint: median survival time, dose: 108.0 mg/kg/injection, schedule: Q04DX003 (ip), vehicle: water) was 99 % of control and the T/C (endpoint: median survival time, dose: 180.0 mg/kg/injection, schedule: Q01DX009 (ip), vehicle: water) was 97 % of control. For the same compound, the T/C (endpoint: median survival time, dose: 180.0 mg/kg/injection, schedule: Q04DX003 (ip), vehicle: water) was 111 % of control.

In the case of `C[n+]1ccc(Nc2ccc(NC(=O)c3ccc(Nc4cc[n+](C)c5ccc(N)cc45)cc3)cc2)cc1`, the T/C (endpoint: mean survival time, dose: 0.5 mg/kg/injection, schedule: Q01DX009 (ip), vehicle: Klucel (hydroxypropylcellulose) (HPC)) is reported as 93 % of control, the T/C (endpoint: mean survival time, dose: 1.0 mg/kg/injection, schedule: Q01DX009 (ip), vehicle: Klucel (hydroxypropylcellulose) (HPC)) is reported as 106 % of control and the T/C (endpoint: mean survival time, dose: 2.0 mg/kg/injection, schedule: Q01DX009 (ip), vehicle: Klucel (hydroxypropylcellulose) (HPC)) is reported as 103 % of control. For the same compound, the T/C (endpoint: mean survival time, dose: 4.0 mg/kg/injection, schedule: Q01DX009 (ip), vehicle: Klucel (hydroxypropylcellulose) (HPC)) was 110 % of control and the T/C (endpoint: mean survival time, dose: 8.0 mg/kg/injection, schedule: Q01DX009 (ip), vehicle: Klucel (hydroxypropylcellulose) (HPC)) was 122 % of control.

With `O=NN(CCCl)C(=O)Nc1ccccc1Cl` the T/C (endpoint: mean survival time, dose: 22.0 mg/kg/injection, schedule: Q01DX001 (ip), vehicle: carboxymethylcellulose (CMC)) was 100 % of control, the T/C (endpoint: mean survival time, dose: 33.0 mg/kg/injection, schedule: Q01DX001 (ip), vehicle: carboxymethylcellulose (CMC)) was 89 % of control and the T/C (endpoint: mean survival time, dose: 50.0 mg/kg/injection, schedule: Q01DX001 (ip), vehicle: carboxymethylcellulose (CMC)) was 100 % of control.

With `CC(C)(C)C1CCC(NC(=O)N(CCCl)N=O)CC1` (centres undefined) the T/C (endpoint: mean survival time, dose: 177.0 mg/kg/injection, schedule: Q01DX001 (ip), vehicle: other) was 170 % of control, the T/C (endpoint: mean survival time, dose: 250.0 mg/kg/injection, schedule: Q01DX001 (ip), vehicle: other) was 156 % of control and 158 % of control and the T/C (endpoint: mean survival time, dose: 354.0 mg/kg/injection, schedule: Q01DX001 (ip), vehicle: other) was 247 % of control. For the same compound, the T/C (endpoint: mean survival time, dose: 375.0 mg/kg/injection, schedule: Q01DX001 (ip), vehicle: other) was 196 % of control and 210 % of control, the T/C (endpoint: mean survival time, dose: 472.0 mg/kg/injection, schedule: Q01DX001 (ip), vehicle: other) was 155 % of control and the T/C (endpoint: mean survival time, dose: 500.0 mg/kg/injection, schedule: Q01DX001 (ip), vehicle: other) was 186 % of control and 201 % of control. For the same compound, the T/C (endpoint: mean survival time, dose: 708.0 mg/kg/injection, schedule: Q01DX001 (ip), vehicle: other) was 86 % of control and the T/C (endpoint: mean survival time, dose: 750.0 mg/kg/injection, schedule: Q01DX001 (ip), vehicle: other) was 152 % of control.

With `O=NN(CCCl)C(=O)Nc1ccc(NC(=O)N(CCCl)N=O)cc1` the T/C (endpoint: mean survival time, dose: 44.0 mg/kg/injection, schedule: Q01DX009 (ip), vehicle: carboxymethylcellulose (CMC)) was 186 % of control, the T/C (endpoint: mean survival time, dose: 67.0 mg/kg/injection, schedule: Q01DX009 (ip), vehicle: carboxymethylcellulose (CMC)) was 181 % of control and the T/C (endpoint: mean survival time, dose: 100.0 mg/kg/injection, schedule: Q01DX009 (ip), vehicle: carboxymethylcellulose (CMC)) was 160 % of control. The T/C (endpoint: mean survival time, dose: 109.0 mg/kg/injection, schedule: Q01DX001 (ip), vehicle: carboxymethylcellulose (CMC)) was 119 % of control and 124 % of control, the T/C (endpoint: mean survival time, dose: 225.0 mg/kg/injection, schedule: Q01DX009 (ip), vehicle: carboxymethylcellulose (CMC)) was 94 % of control and the T/C (endpoint: mean survival time, dose: 264.0 mg/kg/injection, schedule: Q01DX001 (ip), vehicle: carboxymethylcellulose (CMC)) was 168 % of control. The T/C (endpoint: mean survival time, dose: 366.0 mg/kg/injection, schedule: Q01DX001 (ip), vehicle: carboxymethylcellulose (CMC)) was 168 % of control and 182 % of control, the T/C (endpoint: mean survival time, dose: 400.0 mg/kg/injection, schedule: Q01DX001 (ip), vehicle: carboxymethylcellulose (CMC)) was 181 % of control and the T/C (endpoint: mean survival time, dose: 550.0 mg/kg/injection, schedule: Q01DX001 (ip), vehicle: carboxymethylcellulose (CMC)) was 155 % of control and 167 % of control. For the same compound, the T/C (endpoint: mean survival time, dose: 600.0 mg/kg/injection, schedule: Q01DX001 (ip), vehicle: carboxymethylcellulose (CMC)) was 172 % of control, the T/C (endpoint: mean survival time, dose: 900.0 mg/kg/injection, schedule: Q01DX001 (ip), vehicle: carboxymethylcellulose (CMC)) was 190 % of control and the T/C (endpoint: mean survival time, dose: 1350.0 mg/kg/injection, schedule: Q01DX001 (ip), vehicle: carboxymethylcellulose (CMC)) was 173 % of control.

For `CNC(=O)NC(=O)N(C)N=O`, the T/C (endpoint: mean survival time, dose: 15.0 mg/kg/injection, schedule: Q01DX001 (ip), vehicle: carboxymethylcellulose (CMC)) was 105 % of control, the T/C (endpoint: mean survival time, dose: 22.6 mg/kg/injection, schedule: Q01DX001 (ip), vehicle: carboxymethylcellulose (CMC)) was 105 % of control and the T/C (endpoint: mean survival time, dose: 34.0 mg/kg/injection, schedule: Q01DX001 (ip), vehicle: carboxymethylcellulose (CMC)) was 98 % of control. The T/C (endpoint: mean survival time, dose: 51.0 mg/kg/injection, schedule: Q01DX001 (ip), vehicle: carboxymethylcellulose (CMC)) was 112 % of control, the T/C (endpoint: mean survival time, dose: 77.0 mg/kg/injection, schedule: Q01DX001 (ip), vehicle: carboxymethylcellulose (CMC)) was 109 % of control and 111 % of control and the T/C (endpoint: mean survival time, dose: 117.0 mg/kg/injection, schedule: Q01DX001 (ip), vehicle: carboxymethylcellulose (CMC)) was 91 % of control. For the same compound, the T/C (endpoint: mean survival time, dose: 175.0 mg/kg/injection, schedule: Q01DX001 (ip), vehicle: carboxymethylcellulose (CMC)) was 87 % of control.

For `O=NN(CCCl)C(=O)N[C@H]1CCC[C@@H](O)C1`, the T/C (endpoint: mean survival time, dose: 12.0 mg/kg/injection, schedule: Q01DX001 (ip), vehicle: saline with Tween-80) was 124 % of control, the T/C (endpoint: mean survival time, dose: 18.0 mg/kg/injection, schedule: Q01DX001 (ip), vehicle: saline with Tween-80) was 164 % of control and the T/C (endpoint: mean survival time, dose: 26.0 mg/kg/injection, schedule: Q01DX001 (ip), vehicle: saline with Tween-80) was 420 % of control. The T/C (endpoint: mean survival time, dose: 40.0 mg/kg/injection, schedule: Q01DX001 (ip), vehicle: saline with Tween-80) was 452 % of control, the T/C (endpoint: mean survival time, dose: 60.0 mg/kg/injection, schedule: Q01DX001 (ip), vehicle: saline with Tween-80) was 303 % of control and the T/C (endpoint: mean survival time, dose: 90.0 mg/kg/injection, schedule: Q01DX001 (ip), vehicle: saline with Tween-80) was 90 % of control.

For `CCn1cnc2c(SC3CCCC3)ncnc21`, the T/C (endpoint: mean survival time, dose: 30.0 mg/kg/injection, schedule: Q01DX015 (ip), vehicle: carboxymethylcellulose (CMC)) was 118 % of control, the T/C (endpoint: mean survival time, dose: 62.0 mg/kg/injection, schedule: Q01DX015 (ip), vehicle: carboxymethylcellulose (CMC)) was 124 % of control and the T/C (endpoint: mean survival time, dose: 62.0 mg/kg/injection, schedule: Q01DX Z (ip), vehicle: carboxymethylcellulose (CMC)) was 118 % of control. The T/C (endpoint: mean survival time, dose: 125.0 mg/kg/injection, schedule: Q01DX001 (ip), vehicle: carboxymethylcellulose (CMC)) was 106 % of control, the T/C (endpoint: mean survival time, dose: 125.0 mg/kg/injection, schedule: Q01DX015 (ip), vehicle: carboxymethylcellulose (CMC)) was 123 % of control and the T/C (endpoint: mean survival time, dose: 200.0 mg/kg/injection, schedule: Q01DX009 (ip), vehicle: carboxymethylcellulose (CMC)) was 103 % of control. The T/C (endpoint: mean survival time, dose: 250.0 mg/kg/injection, schedule: Q01DX001 (ip), vehicle: carboxymethylcellulose (CMC)) was 112 % of control, the T/C (endpoint: mean survival time, dose: 250.0 mg/kg/injection, schedule: Q01DX Z (ip), vehicle: carboxymethylcellulose (CMC)) was 164 % of control and the T/C (endpoint: mean survival time, dose: 375.0 mg/kg/injection, schedule: Q01DX015 (ip), vehicle: carboxymethylcellulose (CMC)) was 169 % of control. For the same compound, the T/C (endpoint: mean survival time, dose: 400.0 mg/kg/injection, schedule: Q01DX009 (ip), vehicle: carboxymethylcellulose (CMC)) was 200 % of control, the T/C (endpoint: mean survival time, dose: 500.0 mg/kg/injection, schedule: Q01DX001 (ip), vehicle: carboxymethylcellulose (CMC)) was 108 % of control and the T/C (endpoint: mean survival time, dose: 500.0 mg/kg/injection, schedule: Q01DX Z (ip), vehicle: carboxymethylcellulose (CMC)) was 98 % of control. The T/C (endpoint: mean survival time, dose: 1000.0 mg/kg/injection, schedule: Q01DX001 (ip), vehicle: carboxymethylcellulose (CMC)) was 120 % of control.

— PubChem BioAssay AID252 (DTP/NCI, 2004)
